Measured values as given in patent US9242963B2, “Organic compounds” (NOVARTIS AG, priority 2008, dated 2016).

How the values were obtained:
[1] = target: T1, CYP11B1 (steroid 11-hydroxylase) (Homo sapiens, UniProt P15538); assay: Cortisol cell secretion in NCI-H295R cells; assay type: cell-based; settings: 24 hours incubation with cell stimulant
T1 construct: the NCI-H295R cells have CYP11B2 (aldosterone synthase) and CYP11B1 (steroid 11-hydroxylase); host or cells: NCI-H295R
T1 sequence (P15538 25-503): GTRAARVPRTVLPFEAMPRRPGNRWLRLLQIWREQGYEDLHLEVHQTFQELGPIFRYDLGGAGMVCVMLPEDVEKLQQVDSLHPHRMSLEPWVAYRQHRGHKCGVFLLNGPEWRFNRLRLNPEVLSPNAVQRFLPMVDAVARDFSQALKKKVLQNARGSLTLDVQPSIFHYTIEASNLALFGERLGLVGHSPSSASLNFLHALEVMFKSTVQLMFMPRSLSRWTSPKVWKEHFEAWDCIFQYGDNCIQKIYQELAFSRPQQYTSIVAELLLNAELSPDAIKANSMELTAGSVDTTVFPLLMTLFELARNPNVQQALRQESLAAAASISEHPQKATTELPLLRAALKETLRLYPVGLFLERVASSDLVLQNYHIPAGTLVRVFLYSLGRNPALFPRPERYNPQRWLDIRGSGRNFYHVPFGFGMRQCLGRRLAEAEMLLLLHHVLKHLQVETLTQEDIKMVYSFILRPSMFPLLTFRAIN
Source text: (§1) The activities of a compound according to the present invention can be assessed by the following in vitro method well-described in the art.
(§2) In particular, the inhibition of aldosterone and cortisol secretion in vitro can be determined by the following assay.
(§3) The cell line NCI-H295R was originally isolated from an adrenocortical carcinoma and has been characterized in the literature through the stimulable secretion of steroid hormones and the presence of the enzymes essential for steroidogenesis. […]
(§4) For in vitro measurement of aldosterone and cortisol activity, human adrenocortical carcinoma NCI-H295R cells are seeded in NBS 96-well plates at a density of 25,000 cells/well in 100 μL of a growth medium containing DMEM/F12 supplemented with 10% FCS, 2.5% Nu-serum, 1 μg ITS/ml, and 1× antibiotic/antimycotic. […] At the end of incubation, the excretion of aldosterone and cortisol into the culture medium can be detected and quantified by commercially available, specific monoclonal antibodies in radioimmunoassays in accordance with the manufacturer's instructions.
(§5) Measurement of aldosterone can also be performed using a 96-well plate format. […] The amount of aldosterone in each sample is calculated by comparing with a standard curve generated using known quantities of the hormone. […]

[2] = target: T2, CYP11B2 (aldosterone synthase) (Homo sapiens, UniProt P19099); assay: Aldosterone cell secretion in NCI-H295R cells; assay type: cell-based; settings: 24 hours incubation with cell stimulant
T2 construct: the NCI-H295R cells have CYP11B2 (aldosterone synthase) and CYP11B1 (steroid 11-hydroxylase); host or cells: NCI-H295R
T2 sequence (P19099 25-503): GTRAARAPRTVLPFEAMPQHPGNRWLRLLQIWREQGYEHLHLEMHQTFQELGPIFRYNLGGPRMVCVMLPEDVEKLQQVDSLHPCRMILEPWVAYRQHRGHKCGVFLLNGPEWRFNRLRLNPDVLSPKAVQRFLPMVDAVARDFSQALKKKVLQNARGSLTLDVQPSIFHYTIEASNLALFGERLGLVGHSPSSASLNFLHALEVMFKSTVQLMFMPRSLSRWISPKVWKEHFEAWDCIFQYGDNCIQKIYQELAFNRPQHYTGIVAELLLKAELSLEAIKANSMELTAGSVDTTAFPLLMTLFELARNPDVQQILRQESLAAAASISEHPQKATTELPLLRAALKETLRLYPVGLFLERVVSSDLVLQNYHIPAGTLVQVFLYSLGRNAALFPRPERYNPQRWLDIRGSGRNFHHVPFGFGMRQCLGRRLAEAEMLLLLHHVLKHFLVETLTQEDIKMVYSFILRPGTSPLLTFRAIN
Source text: as §1, §2, §3, §4, §5

Row | SMILES | IC50 [1] | IC50 [2]
1 | CCS(=O)(=O)NC(C)c1cncc(-c2c(C#N)c3ccc(Cl)cc3n2C)c1 (racemic) [216 (one enantiomer), (R) and (S)-ethanesulfonic acid {1-[5-(6-chloro-3-cyano-1-methyl-1H-indol-2-yl)-pyridin-3-yl]-ethyl}-amide] | 600 nM | 32 nM
2 | CCS(=O)(=O)NC(C)c1cncc(-c2c(C#N)c3ccc(Cl)cc3n2C)c1 (racemic) [216 (other enantiomer), (R) and (S)-ethanesulfonic acid {1-[5-(6-chloro-3-cyano-1-methyl-1H-indol-2-yl)-pyridin-3-yl]-ethyl}-amide] | 1230 nM | 35 nM
